Source: patent US20050164233A1, “Compositions, kits and methods for identification and modulation of type I diabetes” (priority 2000, published 2005)

What was measured:
[1] = test system: Vα24JαQ T cell clone GW4 (nondiabetic, IL-4+); test: Cytokine secretion (ELISA) from anti-CD3-activated Vα24JαQ T cell clone GW4, inhibitor studies; assay type: cell-based, human; conditions: IL-4+ clone; for IL-4 secretion after inhibition of PI3-kinase: anti-CD3 plus PI3-kinase inhibitor, 1 ng/ml PMA or 1 μg/ml ionomycin included; for anti-CD3-induced IL-4 secretion / secretion of IFN-γ: plate-bound anti-CD3 1 μg/ml, 4 h, ELISA, 10 nM wortmannin; for anti-CD3-induced IL-4 secretion: 10 μM LY294002, 50 μM PD98059, 50 μM SB203580; for secretion of IFN-γ: 10 μM LY294002
Procedure: (§1) Single, Vα24-positive, CD4/8 negative single-cell sorts were grown on irradiated allogeneic feeders at 50,000 cells per well with 5,000 cells per well irradiated (5,000 rads) 721.221 lymphoblastoid cells with 1 μg/ml PHA-P, IL-2 and IL-7 each at 10 units/ml (Boehringer Mannheim) and propagated as described (Wilson et al. (1998) Nature 391: 177-181). Clones positive for Vα24 and NKR-P1A by flow cytometry and a Vα24JαQ CDR3 T cell antigen receptor sequence were assayed for cytokine secretion in C1R/CD1s restriction experiments. For cytokine secretion and inhibitor studies, Vα24JαQ T cell clones GW4 (nondiabetic) and ME10 (diabetic) at 5×10^4 cells per well were activated with plate-bound anti-CD3 or Ig control at 1 μg/ml. Secreted IL-4 and IFN-γ were assayed by ELISA after 4 h of activation as described (Wilson et al. (1998) Nature 391: 177-181). Optimal concentrations of inhibitors previously were determined by inhibitor dose-response experiments. The concentrations of inhibitors used were 10 nM wortmannin; 10 μM LY294002, 50 μM PD98059, a mitogen-activated protein kinase kinase inhibitor, and 50 μM SB203580, a p38 kinase inhibitor. The concentrations of phorbol ester and calcium ionophore used were 1 ng/ml phorbol 12-myristate 13-acetate (PMA) and 1 μg/ml ionomycin. Cyclosporin A (CsA) was used at 5 ng/ml as a negative control, due to itS ability to prevent T cell activation. Calcium flux was determined by loading cells with indo-1 as per the manufacturer's specifications (Molecular Probes), followed by activation with anti-CD3 at 10 μg/ml. Maximal calcium flux was determined by the addition of ionomycin.

[2] = test system: Vα24JαQ T cell clone ME10 (diabetic, IL-4-null); test: Cytokine secretion (ELISA) from anti-CD3-activated Vα24JαQ T cell clone ME10, inhibitor studies; assay type: cell-based, human; conditions: for defect in IL-4 secretion: diabetic-derived clone ME10, 1 ng/ml PMA, 1 μg/ml ionomycin, alone or in combination; for secretion of IFN-γ: IL-4-null clone, plate-bound anti-CD3 1 μg/ml, 4 h, ELISA, 10 nM wortmannin, 10 μM LY294002
Procedure: as §1

Row | Structure (SMILES) | IL-4 secretion after inhibition of PI3-kinase [1] | defect in IL-4 secretion [2] | anti-CD3-induced IL-4 secretion [1] | secretion of IFN-γ [1] | secretion of IFN-γ [2]
1 | CCCCCCCCCCCCCC(=O)O[C@@H]1[C@@H](C)[C@@]2(O)[C@@H](C=C(CO)C[C@]3(O)C(=O)C(C)=C[C@@H]23)[C@@H]2C(C)(C)[C@]12OC(C)=O [PMA, phorbol 12-myristate 13-acetate] | rescued | Neither of these substances alone or in combination repaired the defect | – | – | –
2 | C[S+]([O-])c1ccc(-c2nc(-c3ccncc3)c(-c3ccc(F)cc3)[nH]2)cc1 (stereo not shown) [SB203580] | – | – | no effect | – | –
3 | O=c1cc(N2CCOCC2)oc2c(-c3ccccc3)cccc12 [LY294002] | – | – | – | no effect | no effect
4 | COC[C@H]1OC(=O)c2coc3c2[C@@]1(C)C1=C(C3=O)[C@@H]2CCC(=O)[C@@]2(C)C[C@H]1OC(C)=O [wortmannin] | – | – | – | no effect | no effect
5 | COc1cccc(-c2cc(=O)c3ccccc3o2)c1N [PD98059] | – | – | no effect | – | –
6 | C[C@H](CCC(=O)O)C[C@H](C)C[C@H](C)C(=O)/C=C(\O)[C@H](C)C[C@H](C)C/C=C/[C@@H](C)[C@@H](O)[C@@H](C)[C@@H](O)C[C@@H]1CC[C@@](C)([C@H]2CC[C@@](C)([C@@H](C)O)O2)O1 [ionomycin] | rescued | Neither of these substances alone or in combination repaired the defect | – | – | –
